In the supplement of paper PMC11061612:

Tests used:
Assay in all cases: Bliss excess, mean over the matrix (fraction); higher = more synergy
[1] = system: LS-123 (Colorectal Carcinoma)
Method in brief: (§1)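 Cell lines in DMEM/F12 or RPMI with 10% FBS were plated in 1536-well plates, held 24 hours at 37°C, 5% CO2, then given two-drug dose matrices for 72 hours (DMSO typically 0.2%). Viability was read by CellTiter-Glo 2.0 luminescence and scaled as inhibition from 0 (vehicle wells) to 1 (blank wells). Combination Emax is the second-highest inhibition in the matrix; Bliss excess is observed combination effect minus expected EA + EB − EA·EB, EA and EB being single-agent effects.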

[2] = system: SNU-16 (Gastric Carcinoma)
Method in brief: as §1

[3] = system: ESS-1 (Other Solid Carcinomas)
Method in brief: as §1

[4] = system: NCI-H524 (Small Cell Lung Carcinoma)
Method in brief: as §1

[5] = system: TGBC1TKB (Biliary Tract Carcinoma)
Method in brief: as §1

[6] = system: LNZTA3WT4 (Low Grade Glioma)
Method in brief: as §1

[7] = system: YAPC (Pancreatic Carcinoma)
Method in brief: as §1

[8] = system: HuCCT1 (Biliary Tract Carcinoma)
Method in brief: as §1

[9] = system: HH (T-Cell Non-Hodgkin's Lymphoma)
Method in brief: as §1

[10] = system: BE-13 (T-Lymphoblastic Leukemia)
Method in brief: as §1

[11] = system: BFTC-909 (Kidney Carcinoma)
Method in brief: as §1

[12] = system: CAL-33 (Oral Cavity Carcinoma)
Method in brief: as §1

[13] = system: L-428 (Hodgkin's Lymphoma)
Method in brief: as §1

[14] = system: ALL-PO (B-Lymphoblastic Leukemia)
Method in brief: as §1

BPH-1 (Non-Cancerous) = system: BPH-1 (Non-Cancerous)
Method in brief: as §1

Structure (SMILES)	Bliss excess [1]	Bliss excess [2]	Bliss excess [3]	Bliss excess [4]	Bliss excess [5]	Bliss excess [6]	Bliss excess [7]	Bliss excess [8]	Bliss excess [9]	Bliss excess [10]	Bliss excess [11]	Bliss excess [12]	Bliss excess [13]	Bliss excess [14]	Bliss excess (BPH-1 (Non-Cancerous))
C=CCn1c(=O)c2cnc(Nc3ccc(N4CCN(C)CC4)cc3)nc2n1-c1cccc(C(C)(C)O)n1 [AZD1775] + CCc1c2c(nc3ccc(O)cc13)-c1cc3c(c(=O)n1C2)COC(=O)[C@]3(O)CC [SN-38] (first compound max 1 µM, partner max 0.3 µM)	-0.0581	-0.0475	-0.0011	-0.0355	-0.0491	-0.0414	-0.0599	-0.0281	-0.0696	-0.0186	–	–	–	–	–
C=CCn1c(=O)c2cnc(Nc3ccc(N4CCN(C)CC4)cc3)nc2n1-c1cccc(C(C)(C)O)n1 [AZD1775] + Nc1ccn([C@@H]2O[C@H](CO)[C@@H](O)C2(F)F)c(=O)n1 [Gemcitabine] (first compound max 1 µM, partner max 0.3 µM)	-0.0068	-0.013	0.0774	0.0443	-0.02	0.0746	0.109	0.0536	-0.0316	0.0778	–	–	–	–	–
CN(CCO)CC[C@H](CSc1ccccc1)Nc1ccc(S(=O)(=O)NC(=O)c2ccc(N3CCC([C@@H](O)c4ccccc4-c4ccc(Cl)cc4)CC3)cc2)cc1S(=O)(=O)C(F)(F)F [AZD4320] + CS(=O)(=O)CCNCc1ccc(-c2ccc3ncnc(Nc4ccc(OCc5cccc(F)c5)c(Cl)c4)c3c2)o1 [Lapatinib] (first compound max 1 µM, 7x7, partner max 10 µM)	–	0.0399	0.0668	0.0798	0.0019	0.0677	-0.0148	-0.0052	0.0112	0.0292	–	–	–	–	–
Cc1c2c(nn1C)CSCc1cc(n(C)n1)CSc1cc(c3ccccc3c1)OCCCc1c(C(=O)O)n(C)c3c-2c(Cl)ccc13 [AZD5991] + CC(=O)O[C@H]1C(=O)[C@@]2(C)[C@H]([C@H](OC(=O)c3ccccc3)[C@]3(O)C[C@H](OC(=O)[C@H](O)[C@@H](NC(=O)c4ccccc4)c4ccccc4)C(C)=C1C3(C)C)[C@]1(OC(C)=O)CO[C@@H]1C[C@@H]2O [Paclitaxel] (first compound max 1 µM, 7x7, partner max 3 µM)	-0.0691	0.0119	0.0341	-0.0264	-0.0892	-0.0447	0.0224	-0.0164	0.0737	-0.0476	–	–	–	–	–
Cc1c2c(nn1C)CSCc1cc(n(C)n1)CSc1cc(c3ccccc3c1)OCCCc1c(C(=O)O)n(C)c3c-2c(Cl)ccc13 [AZD5991] + Nc1ccn([C@@H]2O[C@H](CO)[C@@H](O)C2(F)F)c(=O)n1 [Gemcitabine] (first compound max 1 µM, 7x7, partner max 0.3 µM)	-0.0176	0.0183	-0.0338	-0.0212	0.0006	0.0625	-0.0165	-0.0171	-0.0369	-0.0088	–	–	–	–	–
C[C@@H]1COCCN1c1cc(C2([S@](C)(=N)=O)CC2)nc(-c2ccnc3[nH]ccc23)n1 [AZD6738] + C1CC(C1)(C(=O)[O-])C(=O)[O-].N.N.[Pt+2] [Carboplatin] (first compound max 10 µM, 7x7, partner max 10 µM)	-0.0239	0.0045	0.0196	-0.0512	-0.0375	-0.0459	-0.0227	-0.0477	-0.0016	-0.0436	–	–	–	–	–
C[C@@H]1COCCN1c1cc(C2([S@](C)(=N)=O)CC2)nc(-c2ccnc3[nH]ccc23)n1 [AZD6738] + Nc1ccn([C@@H]2O[C@H](CO)[C@@H](O)C2(F)F)c(=O)n1 [Gemcitabine] (first compound max 10 µM, 7x7, partner max 0.3 µM)	0.104	0.0098	0.0734	0.0064	0.0524	0.186	0.0296	0.0144	0.0778	0.153	–	–	–	–	–
C[C@@H](Nc1cc(F)cc(F)c1)c1cc(C(=O)N(C)C)cc2c(=O)cc(N3CCOCC3)oc12 [AZD8186] + CC(=O)c1c(C)c2cnc(Nc3ccc(N4CCNCC4)cn3)nc2n(C2CCCC2)c1=O [Palbociclib] (first compound max 10 µM, 7x7, partner max 10 µM)	0.0701	0.0891	-0.0114	-0.0531	0.0239	0.111	-0.0101	0.0428	0.0853	-0.0165	–	–	–	–	–
C[C@@H](Oc1cc(-c2cnn(C3CCNCC3)c2)cnc1N)c1c(Cl)ccc(F)c1Cl [Crizotinib] + CC1=C(C(=CC=C1)Cl)NC(=O)C2=CN=C(S2)NC3=CC(=NC(=N3)C)N4CCN(CC4)CCO [Dasatinib] (first compound max 10 µM, 7x7, partner max 2 µM)	0.0166	0.0279	0.062	-0.0264	0.0435	0.0429	0.0219	-0.0274	-0.0138	0.0321	–	–	–	–	–
C[C@@H](Oc1cc(-c2cnn(C3CCNCC3)c2)cnc1N)c1c(Cl)ccc(F)c1Cl [Crizotinib] + Cn1cnc2c(F)c(Nc3ccc(Br)cc3Cl)c(C(=O)NOCCO)cc21 [Selumetinib] (first compound max 10 µM, 7x7, partner max 10 µM)	-0.0378	-0.0073	-0.0634	-0.0449	-0.0534	-0.0285	-0.0319	-0.0516	-0.0238	-0.0251	–	–	–	–	–
CS(=O)(=O)CCNCc1ccc(-c2ccc3ncnc(Nc4ccc(OCc5cccc(F)c5)c(Cl)c4)c3c2)o1 [Lapatinib] + Cn1cnc2c(F)c(Nc3ccc(Br)cc3Cl)c(C(=O)NOCCO)cc21 [Selumetinib] (first compound max 10 µM, 7x7, partner max 10 µM)	0.0002	-0.0169	-0.0075	-0.0534	0.034	-0.0268	0.0037	0.0208	-0.0496	-0.0253	–	–	–	–	–
CS(=O)(=O)CCNCc1ccc(-c2ccc3ncnc(Nc4ccc(OCc5cccc(F)c5)c(Cl)c4)c3c2)o1 [Lapatinib] + NC1(c2ccc(-c3nc4ccn5c(=O)[nH]nc5c4cc3-c3ccccc3)cc2)CCC1 [MK-2206] (first compound max 10 µM, 7x7, partner max 10 µM)	0.0101	0.0758	0.005	0.0223	0.0079	-0.0334	0.0208	-0.018	-0.0002	-0.0842	-0.0279	–	–	–	–
O=C(c1cc(Cc2n[nH]c(=O)c3ccccc23)ccc1F)N1CCN(C(=O)C2CC2)CC1 [Olaparib] + CC1(C)CCC(CN2CCN(c3ccc(C(=O)NS(=O)(=O)c4ccc(NCC5CCOCC5)c([N+](=O)[O-])c4)c(Oc4cnc5[nH]ccc5c4)c3)CC2)=C(c2ccc(Cl)cc2)C1 [Venetoclax] (first compound max 10 µM, 7x7, partner max 1 µM)	-0.0413	0.0258	-0.0103	-0.0173	-0.0666	-0.0739	-0.0282	-0.0478	-0.0246	-0.0238	–	–	–	–	–
O=C(c1cc(Cc2n[nH]c(=O)c3ccccc23)ccc1F)N1CCN(C(=O)C2CC2)CC1 [Olaparib] + CN(CC[C@H](CSC1=CC=CC=C1)NC2=C(C=C(C=C2)S(=O)(=O)NC(=O)C3=CC=C(C=C3)N4CCC(CC4)[C@H](C5=CC=CC=C5C6=CC=C(C=C6)Cl)O)S(=O)(=O)C(F)(F)F)CCO [AZD4320] (first compound max 10 µM, 7x7, partner max 1 µM)	-0.0647	0.0432	0.0825	0.0085	-0.049	-0.0332	-0.0169	-0.0518	-0.0133	0.0096	–	–	–	–	–
O=C(c1cc(Cc2n[nH]c(=O)c3ccccc23)ccc1F)N1CCN(C(=O)C2CC2)CC1 [Olaparib] + COc1nnc2ccc(N3CCC(c4ccc(OCCN5CCN(C)C(=O)[C@H]5C)cc4)CC3)nn12 [AZD5153] (first compound max 10 µM, 7x7, partner max 1 µM)	-0.0084	-0.0066	-0.0139	-0.0532	-0.0322	-0.0516	-0.0239	-0.0637	-0.0066	-0.0681	–	–	–	–	–
CCc1c2c(nc3ccc(O)cc13)-c1cc3c(c(=O)n1C2)COC(=O)[C@]3(O)CC [SN-38] + O=C(c1cc(Cc2n[nH]c(=O)c3ccccc23)ccc1F)N1CCN(C(=O)C2CC2)CC1 [Olaparib] (first compound max 0.3 µM, 7x7, partner max 10 µM)	0.0301	0.0005	0.0735	0.0488	0.0009	-0.0114	0.0336	0.0046	-0.0275	0.0503	0.0897	0.0519	0.0367	0.0576	0.0501
Cc1nc(-c2cn3c(n2)-c2ccc(-c4cnn(C(C)(C)C(N)=O)c4)cc2OCC3)n(C(C)C)n1 [Taselisib] + O=C(Nc1ccc2[nH]nc(-c3ccncc3)c2c1)[C@@H]1CCN(CC(=O)N2CCN(c3ccc(-c4ncccn4)cc3)CC2)C1 [SCH772984] (first compound max 10 µM, 7x7, partner max 5 µM)	0.0028	0.123	0.0682	0.0464	0.0043	-0.0617	0.134	0.072	0.0858	-0.0347	–	–	–	–	–
CC1(C)CCC(CN2CCN(c3ccc(C(=O)NS(=O)(=O)c4ccc(NCC5CCOCC5)c([N+](=O)[O-])c4)c(Oc4cnc5[nH]ccc5c4)c3)CC2)=C(c2ccc(Cl)cc2)C1 [Venetoclax] + CS(=O)(=O)CCNCc1ccc(-c2ccc3ncnc(Nc4ccc(OCc5cccc(F)c5)c(Cl)c4)c3c2)o1 [Lapatinib] (first compound max 1 µM, 7x7, partner max 10 µM)	-0.0595	0.0168	0.0298	-0.0393	-0.0308	-0.0178	-0.012	-0.0803	-0.0178	-0.0101	–	–	–	–	–
